# From patent US9308215B2, “Avermectins and milbemycins as anti-mycobacterial agents” (priority 2013, dated 2016)
# Like-named read-outs stand apart in the source and are kept apart here.
# Key:
# M. bovis BCG = experiment: microbe, parasite or virus in culture; format: cell-based, Mycobacterium bovis
# M. tuberculosis = experiment: microbe, parasite or virus in culture; format: cell-based, Mycobacterium tuberculosis; settings: for MIC90: Mycobacterium tuberculosis
# A. baumannii = experiment: microbe, parasite or virus in culture; format: cell-based, Acinetobacter baumannii; settings: strain ATCC 1960, WT
# S. aureus = experiment: microbe, parasite or virus in culture; format: cell-based, Staphylococcus aureus; settings: strain ATCC 25923, WT
# R. jostii = experiment: microbe, parasite or virus in culture; format: cell-based, Rhodococcus jostii; settings: strain RHA1, WT
# E. coli = experiment: microbe, parasite or virus in culture; format: cell-based, Escherichia coli; settings: strain O157:H7, WT
# S. lividans = experiment: microbe, parasite or virus in culture; format: cell-based, Streptomyces lividans; settings: strain 1326, WT
# P. aeruginosa = experiment: microbe, parasite or virus in culture; format: cell-based, Pseudomonas aeruginosa; settings: strain PA01 (H103), WT
# [1] = test system: representative Gram-positive and Gram-negative bacteria; format: cell-based
# K. rhizophila = experiment: microbe, parasite or virus in culture; format: cell-based, Kocuria rhizophila; settings: WT
# M. smegmatis = experiment: microbe, parasite or virus in culture; format: cell-based, Mycobacterium smegmatis; settings: strain mc^2155, WT
# M. microti = experiment: microbe, parasite or virus in culture; format: cell-based
# M. chelonae = experiment: MIC against mycobacterial species; format: cell-based; settings: M. chelonae
# M. aurum = experiment: MIC against mycobacterial species; format: cell-based; settings: M. aurum
# M. phlei = experiment: MIC against mycobacterial species; format: cell-based; settings: M. phlei
# M. avium = experiment: MIC against mycobacterial species; format: cell-based, Mycobacterium avium
# M. intracellulare = experiment: MIC against mycobacterial species; format: cell-based
# M. gordonae = experiment: MIC against mycobacterial species; format: cell-based; settings: M. gordonae 324
# [2] = rats; cited from earlier work
# [3] = Dogs, 250 μg/kg oral; cited from earlier work
# [4] = Humans, oral, cited from earlier work
# [5] = ivermectin: extra-label use; selamectin, moxidectin: therapeutic doses; cited from earlier work
# [6] = single dose, cited from earlier work
# [7] = mice; cited from earlier work
molecule,measurement,setting,value
CO[C@H]1C[C@H](O[C@H]2[C@H](C)O[C@@H](O[C@@H]3/C(C)=C/C[C@@H]4C[C@@H](C[C@]5(C=C[C@H](C)[C@@H](C6CCCCC6)O5)O4)OC(=O)[C@@H]4C=C(C)[C@@H](O)[C@H]5OC/C(=C\C=C\[C@@H]3C)[C@]54O)C[C@@H]2OC)O[C@@H](C)[C@@H]1O [Doramectin],In vitro MIC90,"M. bovis BCG; strain BCG Pasteur, WT",8 µg/mL
same,level of activity,"M. tuberculosis; against all Mycobacterium species, MTT",lower levels of activity
same,In vitro MIC90,"M. tuberculosis; strain 1254, WT",8 to 16 µg/mL
same,In vitro MIC90,"M. tuberculosis; strain CDC 1551, WT",4 to 8 µg/mL
same,In vitro MIC90,"M. tuberculosis; strain Erdman, WT",8 µg/mL
same,In vitro MIC90,"M. tuberculosis; strain H37Rv, WT",8 µg/mL
same,In vitro MIC90,A. baumannii,>256 µg/mL
same,In vitro MIC90,S. aureus,>256 µg/mL
same,In vitro MIC90,R. jostii,>256 µg/mL
same,In vitro MIC90,E. coli,>256 µg/mL
same,In vitro MIC90,S. lividans,>256 µg/mL
same,In vitro MIC90,P. aeruginosa,>256 µg/mL
same,Inhibitory effects,[1],not observed
same,In vitro MIC90,K. rhizophila,>256 µg/mL
same,In vitro MIC90,M. smegmatis,128 µg/mL
Abamectin,MIC,M. microti; M. microti 1601,16 µg/mL
same,MIC,M. microti; M. microti 1608,64 µg/mL
same,MIC,M. microti; M. microti Ov254,256 µg/mL
same,MIC,M. chelonae,16 µg/mL
same,MIC,M. aurum,8 µg/mL
same,MIC,M. phlei,>256 µg/mL
same,MIC,M. avium; M. avium 702,>256 µg/mL
same,MIC,M. avium; M. avium 715,>256 µg/mL
same,MIC,M. intracellulare; M. intracellulare 1403 ATCC35761,16 µg/mL
same,MIC,M. intracellulare; M. intracellulare 1403 Trudeau,16 µg/mL
same,MIC,M. intracellulare; M. intracellulare D673,32 µg/mL
same,MIC,M. intracellulare; M. intracellulare FM,16 µg/mL
same,MIC,M. gordonae,16 µg/mL
CO/N=C1\C[C@]2(C[C@@H]3C[C@@H](C/C=C(\C)C[C@@H](C)/C=C/C=C4\CO[C@@H]5[C@H](O)C(C)=C[C@@H](C(=O)O3)[C@]45O)O2)O[C@H](/C(C)=C/C(C)C)[C@H]1C [Moxidectin],MIC,"M. microti; M. microti 1601, read-out: MIC",4 µg/mL
same,MIC,"M. microti; M. microti 1608, read-out: MIC",4 µg/mL
same,MIC,"M. microti; M. microti Ov254, read-out: MIC",4 µg/mL
same,MIC90,"M. bovis BCG; Mycobacterium tuberculosis variant bovis BCG, BCG, read-out: In vitro MIC90",4 µg/mL
same,MIC,"M. chelonae; Mycobacteroides chelonae, read-out: MIC",4 µg/mL
same,MIC90,"M. tuberculosis; ERDMAN, read-out: In vitro MIC90, strain Erdman, WT",2 to 4 µg/mL
same,MIC90,"M. tuberculosis; read-out: In vitro MIC90, strain 1254, WT",4 µg/mL
same,MIC90,"M. tuberculosis; read-out: In vitro MIC90, strain BC-DS1 (drug-susceptible)",4 µg/mL
same,MIC90,"M. tuberculosis; read-out: In vitro MIC90, strain BC-DS3 (drug-susceptible)",2 µg/mL
same,MIC90,"M. tuberculosis; read-out: In vitro MIC90, strain BC-DS4 (drug-susceptible)",2 µg/mL
same,MIC90,"M. tuberculosis; read-out: In vitro MIC90, strain BC-DS5 (drug-susceptible)",2 to 4 µg/mL
same,MIC90,"M. tuberculosis; read-out: In vitro MIC90, strain CDC 1551, WT",2 µg/mL
same,MIC90,"A. baumannii; Acinetobacter baumannii, ATCC1960, read-out: In vitro MIC90",> 256 µg/mL
same,LD50,[2],106 mg/kg body weight
same,MIC90,"S. aureus; Staphylococcus aureus, ATCC25923, read-out: In vitro MIC90",> 256 µg/mL
same,MIC90,"R. jostii; Rhodococcus jostii, read-out: In vitro MIC90",> 256 µg/mL
same,AUC,[3],11800 ng·h/mL
same,Cmax,[3],234 ng/mL
same,T½,[3],25.9 days
same,AUC,[4]; 3 mg fast,1442 ng·h/mL
same,Cmax,[4]; 3 mg fast,22.4 ng/mL
same,T½,[4]; 3 mg fast,33.8 days
same,AUC,[4]; 9 mg fast,3024 ng·h/mL
same,Cmax,[4]; 9 mg fast,57.9 ng/mL
same,T½,[4]; 9 mg fast,34.6 days
same,AUC,[4]; 18 mg fast,5856 ng·h/mL
same,Cmax,[4]; 18 mg fast,141 ng/mL
same,T½,[4]; 18 mg fast,22 days
same,AUC,[4]; 36 mg fast,10824 ng·h/mL
same,Cmax,[4]; 36 mg fast,289 ng/mL
same,T½,[4]; 36 mg fast,20.2 days
same,AUC,[4]; 36 mg fed,14976 ng·h/mL
same,Cmax,[4]; 36 mg fed,296 ng/mL
same,T½,[4]; 36 mg fed,25.7 days
same,MIC90,"E. coli; Escherichia coli, read-out: In vitro MIC90",> 256 µg/mL
same,toxicity in dogs lacking MDR1 P-glycoprotein / homozygous MDR1 mutation,[5],without any signs of toxicosis
same,MIC,"M. aurum; Mycolicibacterium aurum, read-out: MIC",1 µg/mL
same,MIC,"M. phlei; Mycolicibacterium phlei, read-out: MIC",8 µg/mL
same,MIC90,"S. lividans; Streptomyces lividans, read-out: In vitro MIC90",> 256 µg/mL
same,MIC,M. avium; Mycobacterium avium,> 256 µg/mL
same,MIC,"M. avium; Mycobacterium avium, ATCC25291, M. avium ATCC 25291, read-out: MIC",> 128 µg/mL
same,MIC,"M. avium; Mycobacterium avium, M. avium 715",> 256 µg/mL
same,dose reported safe in humans,[6]; clinical studies,up to 36 mg
same,dose reported not safe in humans,[6],54 mg
same,MIC,"M. intracellulare; Mycobacterium intracellulare, M. intracellulare D673",> 256 µg/mL
same,MIC,"M. intracellulare; Mycobacterium intracellulare, M. intracellulare FM",> 256 µg/mL
same,MIC,"M. intracellulare; Mycobacterium intracellulare, M. intracellulare 1403 ATCC35761, read-out: MIC",16 µg/mL
same,MIC,"M. intracellulare; Mycobacterium intracellulare, M. intracellulare 1403 Trudeau, read-out: MIC",32 µg/mL
same,LD50,[7],84 mg/kg body weight
same,MIC90,"P. aeruginosa; Pseudomonas aeruginosa, read-out: In vitro MIC90",> 256 µg/mL
same,MIC,"M. gordonae; Mycobacterium gordonae, read-out: MIC",4 µg/mL
same,MIC90,"K. rhizophila; Kocuria rhizophila, read-out: In vitro MIC90",> 256 µg/mL
same,MIC90,"M. smegmatis; Mycolicibacterium smegmatis, read-out: In vitro MIC90",4 µg/mL
